The assay concerns the target T1, LDHA (Homo sapiens, UniProt P00338).
T1 construct: purified recombinant LDHA protein (CUSABIO, CSB-EP012832HU)
Kind of assay: SPR (Biacore 8K, LDHA immobilized on CM5 chip, steady-state analysis); supported by CETSA in SK-BR-3 cells. The format is binding. The text has this: SPR (Biacore 8K, LDHA immobilized on CM5 chip, steady-state analysis); supported by CETSA in SK-BR-3 cells on LDHA | using purified recombinant LDHA protein and MLN4924.

On to `NS(=O)(=O)OC[C@@H]1C[C@@H](n2ccc3c(N[C@H]4CCc5ccccc54)ncnc32)C[C@@H]1O` [MLN4924], for which binding was characterised by a dissociation constant (Kd) of 35.5 µM.
